This note sets out measurements from ChEMBL document CHEMBL3822367, “Use of Photosensitizers in Semisolid Formulations for Microbial Photodynamic Inactivation” (2016).

Holding throughout (type): functional
Assay [1] has as its system Burkholderia cepacia. Nature of the assay: Antibacterial activity against Burkholderia cepacia assessed as cell killing at 250 ug/ml after 15 mins followed by irradiation with paterson lamp at 100 J/cm'2 by serial ten fold dilution method.
Assay [2] has as its system Staphylococcus aureus. The assay can be described thus: Antibacterial activity against methicillin-resistant Staphylococcus aureus 180 assessed as planktonic cell killing at 5 ug/ml after 15 mins followed by irradiation with paterson lamp at 100 J/cm'2 by serial ten fold dilution method.
Assay [3] has as its system Staphylococcus aureus. Nature of the assay: Antibiofilm activity against Staphylococcus aureus SH1000 after 24 hrs by plate count method.
Assay [4] concerns Staphylococcus aureus. The assay can be described thus: Antibiofilm activity against Staphylococcus aureus SH1000 assessed as inhibition of planktonic bacterial growth after 24 hrs by turbidity method. Particulars: SH1000, 24 h.
Assay [5] concerns Staphylococcus aureus. The assay can be described thus: Antibacterial activity against Staphylococcus aureus SH1000 in stationary phase assessed as reduction in cell viability at 4 times MIC after 2 hrs by time kill kinetic assay relative to control.
Assay [6] has as its system Candida albicans. Nature of the assay: Antimicrobial activity against Candida albicans ATCC-MYA-273 assessed as reduction in planktonic cell viability at 0.5 uM irradiated with blue light at 12 J/cm'2 for 15 mins by ten fold serial dilution method.
The test system of assay [7] is Candida albicans. The assay can be described thus: Antibiofilm activity against Candida albicans ATCC-MYA-273 assessed as cell killing at 1 uM irradiated with blue light at 48 J/cm'2 for 4 hrs by microplate reader method.
Assay [8] relates to Staphylococcus aureus. The assay can be described thus: Antibacterial activity against methicillin-resistant Staphylococcus aureus ATCC BAA-44 infected in porcine stratum corneum assessed as reduction in viable cells at 10 uM preincubated for 1 hr with bacteria prior to application of bacteria on skin incubated for 5 to 240 mins followed by irradiation with blue light.
The subject of assay [9] is Pseudomonas aeruginosa. Nature of the assay: Antibacterial activity against Pseudomonas aeruginosa ATCC 9027 assessed as planktonic cell killing using laser illumination at 15.5 J/cm'2.
In assay [10] the test system is Pseudomonas aeruginosa. Nature of the assay: Antibiofilm activity against Pseudomonas aeruginosa ATCC 9027 assessed as decrease in cell viability using laser illumination at 13.2 J.
The test system of assay [11] is Staphylococcus aureus. Nature of the assay: Antibacterial activity against methicillin-resistant Staphylococcus aureus 180 assessed as planktonic cell killing at 50 ug/ml after 15 mins followed by irradiation with paterson lamp at 100 J/cm'2 by serial ten fold dilution method.
The subject of assay [12] is Trichophyton rubrum. Nature of the assay: Antifungal activity against Trichophyton rubrum infected in mouse assessed as reduction in fungal burden using light source at 42 J/cm'2 for 10 mins for 7 days. The arrangement: scale not given: the % may be the effect or the level left.

For the molecule `C[n+]1ccc(-c2c3nc(c(-c4cc[n+](C)cc4)c4ccc([nH]4)c(-c4cc[n+](C)cc4)c4nc(c(-c5cc[n+](C)cc5)c5ccc2[nH]5)C=C4)C=C3)cc1.Cc1ccc(S(=O)(=O)[O-])cc1.Cc1ccc(S(=O)(=O)[O-])cc1.Cc1ccc(S(=O)(=O)[O-])cc1.Cc1ccc(S(=O)(=O)[O-])cc1`, the Activity was 99.9% in assay [1] and 100% in [2].
The molecule `C[N+](C)(C)CCCOc1cccc(-c2c3nc(cc4ccc([nH]4)c(-c4cccc(OCCC[N+](C)(C)C)c4)c4nc(cc5ccc2[nH]5)C=C4)C=C3)c1.[Cl-].[Cl-]` had an MBEC in assay [3] of 2 mg/L. Also, the MIC in [4] was determined as 1 µg/mL. Moreover, the Activity entry in assay [5] is “>=5 deltalog10CFU/ml”.
On to `N=C(NCCCCCCNC(=N)NC(=N)Nc1ccc(Cl)cc1)NC(=N)Nc1ccc(Cl)cc1` [CHLORHEXIDINE], for which the Activity in assay [5] worked out at 3 deltalog10CFU/ml.
Turning to `C[N+](C)(C)CCCOc1ccc(-c2c3nc(cc4ccc([nH]4)c(-c4ccc(OCCC[N+](C)(C)C)cc4)c4nc(cc5ccc2[nH]5)C=C4)C=C3)cc1.[Cl-].[Cl-]` [EXEPORFINIUM CHLORIDE], the Activity in assay [6] was 6 deltalog10CFU/ml; in [7], 5 deltalog10CFU/ml; in assay [8], 3.6 deltalog10CFU/ml; in [5], “>=5 deltalog10CFU/ml”. Besides, the MBEC in [3] is on record as 2 mg/L. In addition, in assay [4], the MIC was 1 µg/mL.
`CN(C)c1ccc2nc3ccc(N(C)C)cc3[s+]c2c1.[Cl-]` [METHYLENE BLUE ANHYDROUS]: the Activity is on record as 100% in assay [9], 100% in assay [1], over 99.999% in assay [10] and 100% in [11].
As to `Cc1cc2nc3ccc(N(C)C)cc3[s+]c2cc1N.[Cl-]` [TOLONIUM CHLORIDE], the Activity in assay [12] was found to be 87%.
For Cetyltrimethylammonium bromide, in assay [5], the Activity (deltalog10CFU/ml) came out at 3.
